SMILES strings stand for the structures. Starred links: 1 amine or outer side, 2 acyl side, 3 side chain; linkers in the order of their positions; H or OH if unused. Non-standard residues stand in square brackets, D forms with d. Residues, ends and D or L forms follow the SMILES beside them. *: point of attachment. X2 = CO[C@H]([C@@H](C)C(=O)[*:2])[C@@H]1C[C@@H]2C[C@@H]2N1[*:1]; Dolaproine = CO[C@@H]([C@@H]1CCCN1)[C@@H](C)C(=O)O; Abu(3S-N3) = C[C@H](N=[N+]=[N-])[C@H](N)C(=O)O; X6 = C/C(=N\OCC(=O)*)c1ccc(C[C@H](N)C(=O)O)cc1; Dil = CC[C@H](C)[C@H](NC)[C@@H](CC(=O)O)OC; X5 = CCCCCCCCCCN(C)[C@H](C(=O)*)C(C)C; Phe(2-F) = N[C@@H](Cc1ccccc1F)C(=O)O; NMeV = CN[C@H](C(=O)O)C(C)C

For orientation: IC50 means the concentration at which inhibition is half-maximal. By GI50 is commonly meant the concentration that inhibits growth by half. One may read the MTD as the largest dose that counted as tolerated.

Series [1] relates to HeLa S3. The series is described as follows: Cytotoxicity against human HeLa S3 cells assessed as reduction in cell viability incubated for 4 days by propidium iodide staining based fluorescence analysis. It counts as functional. The note with it: HeLa S3, 96 h.
Series [2] deals with KARPAS-299. The series is described as follows: Cytotoxicity against human KARPAS-299 cells assessed as reduction in cell viability incubated for 5 days by Presto blue dye based assay. It is filed as functional. To be noted: KARPAS-299, 120 h.
Series [3] deals with HeLa. Description: Cytotoxicity against human HeLa cells assessed as cell growth inhibition. It is filed as functional.
Series [4] has as its system ASPC1. Description: Cytotoxicity against human ASPC1 cells assessed as cell growth inhibition incubated for 72 hrs by CellTiter-Glo assay. It counts as functional.
Series [5] deals with SK-BR-3. Description: Cytotoxicity against human SK-BR-3 cells assessed as cell growth inhibition incubated for 72 hrs by CellTiter-Glo assay. It is filed as functional. Background: In ATP-based viability assays light output follows the ATP content of the culture.
Series [6] concerns HT-29. The series is described as follows: Anticancer activity against human HT-29 assessed as reduction in cell viability incubated for 96 hrs by microculture tetrazolium assay. It is filed as functional, cell-based. To be noted: HT-29, 96 h.
Series [7] has as its system SK-OV-3. Description: Cytotoxicity against human SK-OV-3 cells assessed as reduction in cell viability incubated for 96 hrs by PrestoBlue cell viability assay. The note with it: SK-OV-3, 96 h. It counts as functional, cell-based.
Series [8] has as its system A498. The series is described as follows: Anticancer activity against human A498 cells assessed as growth inhibition. It counts as functional.
Series [9] relates to SF-295. Description: Anticancer activity against human SF-295 cells assessed as growth inhibition. It counts as functional.
Series [10] concerns NCI-H69. The series is described as follows: Anticancer activity against human NCI-H69 cells assessed as cell growth inhibition. It is filed as functional, cell-based.
Series [11] relates to NCI-H446. The series is described as follows: Anti-tumor activity against human NCI-H446 cells xenografted in SCID mouse assessed as log increase in apoptosis at 450 microg/kg, iv measured after 96 hrs. It is filed as functional. To be noted: dose 450 µg/kg. For orientation: In xenograft studies the graft and the host belong to different species.
Series [12] concerns leukaemia cell line. The series is described as follows: Cytotoxicity against human leukaemia cell line assessed as cell growth inhibition. It is filed as functional.
In series [13] the test system is NCI-H510A. Description: Anticancer activity against human NCI-H510A cells assessed as cell growth inhibition. It counts as functional, cell-based.
Series [14] deals with Tubulin. Description: Inhibition of tubulin (unknown origin) polymerization assessed as reduction in microtubule formation preincubated for 15 mins followed by GTP addition and measured for 20 mins by spectrophotometric analysis. It counts as protein-complex assay, Homo sapiens.
The subject of series [15] is NCI-H446. The series is described as follows: Anti-tumor activity against human NCI-H446 cells xenografted in SCID mouse assessed as increase in median survival time at 450 microg/kg, iv (Rvb= 42 day). It is filed as functional. To be noted: dose 450 µg/kg.
For series [16], the system named is L1210. The series is described as follows: Cytotoxicity against mouse L1210 cells assessed as cell growth inhibition measured after 24 hrs. To be noted: L1210, 24 h. It counts as functional, cell-based.
Series [17] deals with SK-MEL-5. The series is described as follows: Anticancer activity against human SK-MEL-5 cells assessed as growth inhibition. It is filed as functional.
Series [18] in a line: Toxicity in dog assessed as maximum tolerated dose. Details: species or system Canis lupus familiaris. To be noted: in vivo.
Series [19] relates to OVCAR-3. Description: Anticancer activity against human OVCAR-3 cells assessed as growth inhibition. It counts as functional.
Series [20] concerns NCI-H82. The series is described as follows: Anticancer activity against human NCI-H82 cells assessed as cell growth inhibition. It counts as functional, cell-based.
Series [21] can be described thus: Toxicity in mouse assessed as maximum tolerated dose. To be noted: in vivo.
In series [22] the test system is KM-20L2. Description: Anticancer activity against human KM-20L2 cells assessed as growth inhibition. It is filed as functional.
Series [23] relates to Panel NCI-60 (60 carcinoma cell lines). Description: Cytotoxicity against human Panel NCI-60 (60 carcinoma cell lines) assessed as cell growth inhibition. It counts as functional, cell-based.
For series [24], the system named is NCI-H446. The series is described as follows: Anticancer activity against human NCI-H446 cells assessed as cell growth inhibition. It counts as functional, cell-based.
In series [25] the test system is NCI-H460. The series is described as follows: Anticancer activity against human NCI-H460 cells assessed as growth inhibition. It counts as functional.
Series [26] deals with Tubulin. Description: Inhibition of tubulin (unknown origin) polymerization assessed as reduction in microtubule formation measured for 20 mins by spectrophotometric analysis. It is filed as protein-complex assay, Homo sapiens.
Series [27] deals with HL-60. Description: Cytotoxicity against P-gp negative human HL-60 cells assessed as reduction inc cell viability. It counts as functional, cell-based.
The target of series [28] is Tubulin. Description: Binding affinity to tubulin (unknown origin). It is filed as protein-complex assay, Homo sapiens.
The subject of series [29] is HCT-116. The series is described as follows: Cytotoxicity against human HCT-116 cells assessed as reduction inc cell viability. It is filed as functional, cell-based.
Series [30] has as its system H3396. The series is described as follows: Cytotoxicity against human H3396 cells assessed as cell growth inhibition. It is filed as functional, cell-based.
Series [31] concerns HT-29. Description: Cytotoxicity against human HT-29 cells assessed as cell growth inhibition. It is filed as functional, cell-based.

Turning to `CC[C@H](C)[C@@H]([C@@H](CC(=O)N1CCC[C@H]1[C@H](OC)[C@@H](C)C(=O)O[C@H](CO)Cc1ccccc1)OC)N(C)C(=O)[C@@H](NC(=O)[C@H](C(C)C)N(C)C)[C@@H](C)CC`, in series [1], the half-maximal inhibitory concentration (IC50) came to 2.1 nM.

With `CC[C@H](C)[C@@H]([C@@H](CC(=O)N1CCC[C@H]1[C@H](OC)[C@@H](C)C(=O)N[C@@H](Cc1ccccc1)C(=O)O)OC)N(C)C(=O)[C@@H](NC(=O)[C@H](C(C)C)N(C)C(=O)CO/N=C(\C)c1ccc(C[C@H](N)C(=O)O)cc1)[C@H](C)N=[N+]=[N-]` (X6-[NMeV][Abu(3S-N3)][Dil][Dolaproine]F-OH), the IC50 in [2] stood at 217 nM.

Turning to `CC[C@H](C)[C@@H]([C@@H](CC(=O)NC[C@H]1O[C@H](C(=O)N[C@@H](Cc2ccccc2)c2nccs2)[C@@H](OC)[C@@H]1OC)OC)N(C)C(=O)[C@@H](NC(=O)[C@H](C(C)C)N(C)C)C(C)C`, the GI50 in series [3] stood at 0.01 nM.

Take `CC[C@H](C)[C@@H]([C@@H](CC(=O)N1[C@H]2C[C@H]2C[C@H]1[C@H](OC)[C@@H](C)C(=O)N[C@@H](Cc1ccccc1F)C(=O)O)OC)N(C)C(=O)[C@@H](NC(=O)[C@@H](NC)C(C)C)C(C)C` (H-[NMeV]V[Dil][X2][Phe(2-F)]-OH): the values for the 50% growth inhibitory concentration (GI50) in series [4] and in [5] were 1750 nM and 47.7 nM, respectively.

Take `CC[C@H](C)[C@H]1[C@H](OC)CC(=O)N2CCC[C@H]2[C@H](OC)[C@@H](C)C(=O)N[C@@H](Cc2ccccc2)c2nc(cs2)C(=O)O[C@H](C)[C@H](N(C)C)C(=O)N[C@@H](C(C)C)C(=O)N1C`: the IC50 in [6] was determined as 58.5 nM.

Consider `C#COCC(O)C(O)C(O)C(O)CN(C)[C@H](C(=O)N[C@H](C(=O)N(C)[C@@H]([C@@H](C)CC)[C@@H](CC(=O)N1CCC[C@H]1[C@H](OC)[C@@H](C)C(=O)N[C@@H](Cc1ccccc1)c1nccs1)OC)C(C)C)C(C)C` (some centres not stated), for which the half-inhibitory concentration (IC50) in series [7] turned out to be 1 nM.

As to `CC[C@H](C)[C@@H]([C@@H](CC(=O)N1CCC[C@H]1[C@H](OC)[C@@H](C)C(=O)N[C@@H](Cc1ccccc1)c1nccs1)OC)N(C)C(=O)[C@@H](NC(=O)[C@H](C(C)C)N(C)CC(O)C(O)C(O)C(O)CN=[N+]=[N-])C(C)C` (some centres not stated), the 50% inhibitory concentration (IC50) in [7] was below 1 nM.

As to `CC[C@H](C)[C@@H]([C@@H](CC(=O)N1CCC[C@H]1[C@H](OC)[C@@H](C)C(=O)N[C@@H](Cc1ccccc1)c1nccs1)OC)N(C)C(=O)[C@@H](NC(=O)[C@H](C(C)C)N(C)C)C(C)C` [DOLASTATIN-10], the GI50 in series [8] amounted to 0.033 nM; in series [9], 0.01 nM; in [17] it was 0.009 nM; in series [19], 0.001 nM; in series [22], 0.006 nM; in [23], 0.01 nM. The GI50 in series [25] came out at 0.004 nM. The half-maximal inhibitory concentration (IC50) in [10] turned out to be 0.032 nM; in series [13] it was 0.032 nM; in series [14] it was 3 nM; in [16] it was 0.9 nM; in series [20] it was 0.032 nM; in series [24] it was 0.032 nM. In series [26], the IC50 was 1200 nM. In addition, the Activity in series [11] turned out to be 5.2. Further, the ED50 in [12] is reported as 4.6 10^-5 ug/ml. For the same molecule, in series [15], the MST turned out to be 91 days. In addition, the maximum tolerated dose (MTD) in series [18] was 0.02 mg/kg; in series [21] it was 0.036 mg/kg.

Turning to `CC[C@H](C)[C@@H]([C@@H](CC(=O)N1CCC[C@H]1[C@H](OC)[C@@H](C)C(=O)N[C@@H](Cc1ccccc1)C(N)=O)OC)N(C)C(=O)[C@@H](NC(=O)[C@@H](NC)C(C)C)[C@H](C)N=[N+]=[N-]` (H-[NMeV][Abu(3S-N3)][Dil][Dolaproine]F-NH2), the half-maximal inhibitory concentration (IC50) in [2] turned out to be 0.6 nM.

Take `CCCCCCCCCCN(C)[C@H](C(=O)N[C@H](C(=O)N(C)[C@@H]([C@@H](C)CC)[C@@H](CC(=O)N1CCC[C@H]1[C@H](OC)[C@@H](C)C(=O)N[C@@H](Cc1ccccc1)C(=O)O)OC)C(C)C)C(C)C` (X5-V[Dil][Dolaproine]F-OH): the IC50 in [27] turned out to be 1.8 nM.

In series [28], `CC[C@H](C)[C@@H]([C@@H](CC(=O)N1CCC[C@H]1[C@H](OC)[C@@H](C)C(=O)NCCc1ccccn1)OC)N(C)C(=O)[C@@H](NC(=O)[C@H](C(C)C)N(C)C)C(C)C` yielded a half-inhibitory concentration (IC50) of 1.2 nM. Besides, the GI50 in series [23] was 0.85 nM.

Take `CC[C@H](C)[C@@H]([C@@H](CC(=O)N1CCC[C@H]1[C@H](OC)[C@@H](C)C(=O)N[C@@H](Cc1ccccc1)C(=O)O)OC)N(C)C(=O)[C@@H](NC(=O)[C@@H](NC)C(C)C)C(C)C` (HELM PEPTIDE1{[meV].V.[CC[C@H](C)[C@@H]([C@@H](CC(=O)[*:2])OC)N(C)[*:1]].[CO[C@H]([C@@H](C)C(=O)[*:2])[C@@H]1CCCN1[*:1]].F}$$$$V2.0): the IC50 in [29] was 2880 nM; in [27] it was 137 nM; in [30], 105 nM; in series [31], 10 nM. For the same molecule, the MTD in [21] is 1 mg/kg.

Take `CC[C@H](C)[C@@H]([C@@H](CC(=O)N1CCC[C@H]1[C@H](OC)[C@@H](C)C(=O)OC[C@@H](O)Cc1ccccc1)OC)N(C)C(=O)[C@@H](NC(=O)[C@H](C(C)C)N(C)C)[C@@H](C)CC`: in series [1], the IC50 is 2.9 nM.

The values above are taken from ChEMBL document CHEMBL5150014, “Discovery and Development of Dolastatin 10-Derived Antibody Drug Conjugate Anticancer Drugs” (J Nat Prod, 2022).
